In patent US10077464B2, “Micro-organism detection medium comprising at least one alkyl(thio)glycoside” (Biomérieux, priority 2012, dated 2018):

Legend:
[1] = test system: Microorganisms of the genus Salmonella; assay: Detection of salmonellae, all strains of Example 1; assay type: cell-based; details: alkylglycoside in place of Tween 20, Example 1
Description: A stock solution of the enzyme substrate 5-bromo-6-chloro-3-indoxyl caprylate (magenta-C8) is made in a DMSO-type solvent. A volume of this stock solution which makes it possible to obtain a final substrate concentration of 360 mg/L is then added into flasks respectively containing Tween 20 (final concentration 6 g/L), n-octyl-β-D-glucopyranoside (OG) to final concentrations of 0.7, 2 and 6 g/L, and n-dodecyl-β-D-maltoside (DM) to the same concentrations. The different solutions are agitated and the volumes are introduced into supercooled agar media (chromID® Salmonella media).
Microorganisms of the genus Salmonella from the Applicant's collection were seeded on each of the aforementioned media in accordance with the three-dial technique from bacterial suspensions calibrated to 0.5 McF. The strains were selected for their low to average expression of esterase activity, giving low to average violet coloration intensities on the chromID® Salmonella medium marketed by bioMérieux (under the references 43621 and 43629).
The dishes were incubated for 24 h at 37° C. Then the colonies which formed were examined visually after 24 h of incubation. The coloration intensities were recorded.

[2] = test system: P. aeruginosa and A. baumannii; assay: Detection of P. aeruginosa and A. baumannii, all strains of Example 2; assay type: cell-based
Description: Two stock solutions at 25 g/L of ALDOL™ 470-nonanoate (ALDOL 470-C9, developed by Biosynth AG, Rietlisstrasse 4,9422 Staad, Switzerland) and of ALDOL™ 495-nonanoate (ALDOL 495-C9, also developed by Biosynth AG, Rietlisstrasse 4,9422 Staad, Switzerland) are made in a DMSO-type organic solvent. Then a volume corresponding to a final concentration of enzyme substrates of 200 mg/L is added into flasks containing respectively: Tween 20 (final concentration in the medium of 6 g/L), and DM (final concentrations of 0.7, 2 and 6 g/L). The different flasks are vigorously agitated, then all of the contents are added into the supercooled agar media: TSA (trypticase soy agar) base.
Bacteria from the Applicant's collection were seeded on each of the aforementioned media in accordance with the three-dial technique from bacterial suspensions calibrated to 0.5 McF. The dishes were incubated for 24 h at 37° C. and the colonies formed were analysed visually. Thus, the colorations and the coloration intensities were recorded.

Compound	Esterase activity detection sensitivity in Salmonella [1]	Detection of the strains tested ([2]; replacement of the Tween 20 at 6 g/L by DM at the same concentration, whatever the enzyme substrate)	Detection of the esterase activity of the microorganisms ([2]; substitution of Tween 20 by DM, Example 2)
CCCCCCCCCCCCO[C@@H]1O[C@H](CO)[C@@H](O[C@H]2O[C@H](CO)[C@@H](O)[C@H](O)[C@H]2O)[C@H](O)[C@H]1O [DM, n-dodecyl-β-D-maltoside]	improve the esterase activity detection sensitivity in Salmonella	detect all of the strains tested	improves the detection of the esterase activity of the microorganisms
CCCCCCCCO[C@@H]1O[C@H](CO)[C@@H](O)[C@H](O)[C@H]1O [OG, n-octyl-β-D-glucopyranoside]	improve the esterase activity detection sensitivity in Salmonella		
